Experimental data as given in US11344614B2, “Pharmaceutical compositions comprising dengue virus-specific multiple HLA-binding T cell epitopes” (priority 2018, dated 2022).
Peptide text beside a SMILES is read from it.

Test system: CD8+ T cells
Conditions: healthy seronegative HLA-A2 donor CTLs, peptide pulsed or DENV-2 infected JY cells, FIG. 1; for secretion of granzyme B (cytotoxic activity): supernatant
Text: FIG. 1. […] (A.) HLA-A2 restricted CTLs directed against the peptides (peptides are represented as first 3 residues of the sequence) were generated using peripheral blood from a seronegative donor. PBMCs containing the epitope specific CTLs were harvested, washed, and cultured with the peptide […] cells overnight in an IFN-gamma ELISpot assay. (B). Identical cultures were set up as in (A) but in 96 well round bottom plates. The next day, supernatant was harvested and used to detect cytolytic activity (B) and the cells were analyzed for the marker of degranulation, CD107a (C.)
Epitope specific CD8^+ T cells (CTLs) were generated as previously described. […] Two hours after pulsing, the non-adherent cells were added back into the plates in a cytokine rich medium of RPMI-1640 supplemented with IL-7 (5 ng/mL), GM-CSF (25 ng/mL), IL-4 (50 ng/mL), and keyhole limpet hemocyanin (5 ug/mL KLH; Sigma-Aldrich) and cultured at 37° C. at 5% CO2. T cells in the culture were restimulated two weeks after the initial stimulation with autologous PBMCs depleted of CD4^+ and CD8^+ T cells and pulsed with synthetic peptides (10 ug/mL) and β2-microglobulin (1.5 ug/mL). Restimulated cells were cultured in RPMI-1640 supplemented with IL-15 (5 ng/mL), GM-CSF (12.5 ng/mL) and IL-2 (10 U/mL) for 7 days. Restimulation was performed a total of three times prior to CTL functional assays. Unless otherwise specified, all cytokines and growth factors were purchased from eBiosciences (San Diego, Calif.).

SMILES | degranulation marker CD107a (cytotoxic activity) | secretion of granzyme B (cytotoxic activity)
CC[C@H](C)[C@H](NC(=O)[C@@H](NC(=O)[C@H](C)NC(=O)[C@H](CC(N)=O)NC(=O)[C@@H]1CCCN1C(=O)[C@@H](NC(=O)[C@H](CS)NC(=O)[C@H](CC(C)C)NC(=O)[C@H](CCSC)NC(=O)[C@H](C)N)[C@@H](C)CC)[C@@H](C)CC)C(=O)O [AML] (H-AMLCIPNAII-OH; N-terminus and C-terminus assumed) | upregulation of the degranulation marker CD107a | secretion
CC[C@H](C)[C@H](NC(=O)[C@H](CCSC)NC(=O)[C@@H](NC(=O)[C@H](CC(N)=O)NC(=O)[C@@H]1CCCN1C(=O)[C@@H](NC(=O)[C@H](CS)NC(=O)[C@H](CC(C)C)NC(=O)[C@@H](N)CC(C)C)C(C)C)[C@@H](C)CC)C(=O)O [LLC] (H-LLCVPNIMI-OH; N-terminus and C-terminus assumed) | upregulation of the degranulation marker CD107a | secretion
CC[C@H](C)[C@H](NC(=O)[C@H](Cc1ccccc1)NC(=O)[C@H](C)N)C(=O)N[C@@H](C)C(=O)N[C@@H](Cc1ccccc1)C(=O)N[C@H](C(=O)N[C@@H](CCCNC(=N)N)C(=O)N[C@@H](Cc1ccccc1)C(=O)O)C(C)C [AFI] (H-AFIAFVRF-OH; N-terminus and C-terminus assumed) | upregulation of the degranulation marker CD107a | secretion
CC[C@H](C)[C@H](NC(=O)[C@@H](NC(=O)[C@@H](N)CCSC)[C@@H](C)CC)C(=O)N[C@H](C(=O)N[C@@H](CC(=O)O)C(=O)N[C@@H](CCC(=O)O)C(=O)N[C@@H](C)C(=O)N[C@@H](Cc1c[nH]cn1)C(=O)N[C@@H](Cc1ccccc1)C(=O)O)C(C)C [MII] (H-MIIVDEAHF-OH; N-terminus and C-terminus assumed) | upregulation of the degranulation marker CD107a | secretion
